Measurements taken from patent US20110288123A1, “FORMULATIONS FOR THE TREATMENT OF ACUTE HERPES ZOSTER PAIN” (priority 2008, published 2011).

Legend:
[1] = Crystallization of lidocaine in formulation with time; type: physicochemical; conditions: lidocaine base formulation; water concentration greater than about 40% w/w
Text: In this experiment, the water concentration in L504 was maximized in order to develop a more benign vehicle with reduced chance of irritation.

[2] = Stinging test (VAS) on tape-stripped forearm skin of subjects; type: in vivo, human; conditions: for Subjective Stinging Score, mean: 100 mm VAS, n=10, abraded skin
Text: Topical formulations, particularly those that are to be applied to diseased or damaged skin (e.g. cracks, fissures, open blisters, rash, and the like) may produce the sensory perception of stinging, a distinct discomfort to the user. A stinging test can be used to assess whether the novel topical formulations described herein produce a sensory perception of stinging.
For example, the study is designed to assess the sting potential of four topical formulations using a modification of a lactic acid sting assessment method. The test formulations are evaluated on skin that has been partially damaged (e.g. partial removal of the stratum corneum by tape stripping) to simulate diseased skin. Both a positive control (70% isopropyl alcohol) and a negative control (water) can be included to ascertain each subject's ability to sense the stinging sensation.
After providing informed consent, each subject receives a single dose exposure of 5 μL/cm^2 (40 μL/site) of a test formulation to an 8 cm^2 (2 cm×4 cm) surface abraded test site on their forearms (3 sites/arm), for a 10 minute duration. Skin abrasion is produced by repetitive tape stripping until a TEWL (Trans-Epidermal Water-Loss) measurement of 30 g/m^2/hr, or greater, has been achieved (e.g. tape stripping will be performed 15 times followed by a TEWL measurement. If the TEWL is <30 g/m^2/hr, 10 more strips will be collected, if TEWL is still <30 g/m^2/hr, 10 more tape strip will be collected).
Subjects rated stinging, pain and discomfort at the site using a 100 mm visual analogue scale (VAS), one for each individual sensation, immediately after dosing and at 2, 5 and 10 minutes following topical application. Subjects provided a description of the sensations experienced following application of each test article. The subjects responses, measured in mm, were tabulated for each post-dosing assessment for each test sited.

| SMILES | crystallization of lidocaine in solution with time [1] | Subjective Stinging Score, mean ([2]; 2 Minute after application) [mm] | Subjective Stinging Score, mean ([2]; 5 Minute after application) [mm] | Subjective Stinging Score, mean ([2]; 10 Minute after application) [mm] | Subjective Stinging Score, mean ([2]; Immediate after application) [mm] | Subjective Stinging Score, mean ([2]; Maximum score) [mm] | stinging response in the stinging test (in words) ([2]; comparison with water application or LidHCL115a base formulation) |
| --- | --- | --- | --- | --- | --- | --- | --- |
| CCN(CC)CC(=O)Nc1c(C)cccc1C [lidocaine, Lidocaine base] | tended to crystallized with time | – | – | – | – | – | – |
| CC(C)O [70% Isopropanol, Isopropyl Alcohol] | – | 3.31 | 1.87 | 1.00 | 10.84 | 12.13 | immediate stinging response is severe, followed by a rapid fall in pain |
